Measurements from ChEMBL document CHEMBL2331239, “Inhibiting NF-κB-inducing kinase (NIK): discovery, structure-based design, synthesis, structure-activity relationship, and co-crystal structures” (Bioorg Med Chem Lett, 2013).

What was measured:
[1] = molecular target: T1, Mitogen-activated protein kinase kinase kinase 14 (Homo sapiens, UniProt Q99558); assay: Inhibition of NIK (unknown origin) autophosphorylation after 1 hr by chemiluminescent assay
[2] = molecular target: T1, Mitogen-activated protein kinase kinase kinase 14; assay: Inhibition of NIK in human HT-29 cells assessed as LTalpha/beta2-induced p100 processing to NFkappaB2 preincubated for 30 mins before LTalpha/beta2 stimulation measured after 5 hrs; type: cell-based

T1 sequence (Q99558 whole entry): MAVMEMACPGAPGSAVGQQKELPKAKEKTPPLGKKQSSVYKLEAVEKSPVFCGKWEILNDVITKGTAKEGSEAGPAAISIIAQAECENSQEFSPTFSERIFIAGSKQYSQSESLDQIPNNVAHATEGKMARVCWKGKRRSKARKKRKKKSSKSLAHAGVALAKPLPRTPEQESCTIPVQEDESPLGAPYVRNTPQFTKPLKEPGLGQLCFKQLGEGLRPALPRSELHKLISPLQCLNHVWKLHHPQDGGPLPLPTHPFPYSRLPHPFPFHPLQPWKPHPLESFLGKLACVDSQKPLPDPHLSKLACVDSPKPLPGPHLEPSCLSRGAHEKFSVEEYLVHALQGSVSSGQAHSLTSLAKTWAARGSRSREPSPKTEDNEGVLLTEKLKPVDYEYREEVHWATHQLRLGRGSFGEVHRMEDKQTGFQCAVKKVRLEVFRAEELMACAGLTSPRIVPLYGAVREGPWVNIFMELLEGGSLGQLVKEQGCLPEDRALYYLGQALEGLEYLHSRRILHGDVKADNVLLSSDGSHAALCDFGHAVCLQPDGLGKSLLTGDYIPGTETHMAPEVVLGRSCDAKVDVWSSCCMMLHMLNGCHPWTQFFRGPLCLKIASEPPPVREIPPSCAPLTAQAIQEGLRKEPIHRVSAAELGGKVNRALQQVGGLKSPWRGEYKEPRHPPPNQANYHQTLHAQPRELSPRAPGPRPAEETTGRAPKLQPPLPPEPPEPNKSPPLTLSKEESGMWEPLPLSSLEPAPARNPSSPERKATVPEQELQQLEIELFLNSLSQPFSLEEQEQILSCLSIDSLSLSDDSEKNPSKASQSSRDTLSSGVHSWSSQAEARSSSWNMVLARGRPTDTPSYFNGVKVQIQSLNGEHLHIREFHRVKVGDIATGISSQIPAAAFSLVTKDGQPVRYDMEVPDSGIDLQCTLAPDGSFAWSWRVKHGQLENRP

Work on `Cc1nc2ccccn2c1-c1ccnc(N)n1` yielded an IC50 [1] greater than 80 µM.

Compound `Cc1ccn2c(-c3ccnc(N)n3)c(C)nc2c1` has an IC50 [1] greater than 80 µM.

With `Cc1nc2c(C)cccn2c1-c1ccnc(N)n1` the IC50 [1] was greater than 80 µM.

In the case of `Cc1cnc(N)nc1-c1c[nH]c2ccc(Cl)cc12`, the IC50 [1] is reported as 0.11 µM.

`Cc1cnc(N)nc1-c1c(C)[nH]c2ccc(Cl)cc12` showed an IC50 [1] of 30 µM.

`Nc1ncc2c(n1)-c1c([nH]c3ccc(Cl)cc13)CCC2` gave an IC50 [1] of 0.07 µM.

`Nc1ncc2c(n1)-c1c[nH]c3ccc(Cl)c(c13)CC2` gave an IC50 [1] of 2.6 µM.

`Nc1ncc2c(n1)-c1c([nH]c3ccc(Cl)cc13)CC2` gave an IC50 [1] of 1.2 µM.

Work on `Nc1ncc2c(n1)-c1c([nH]c3ccc(Cl)cc13)CCCC2` yielded an IC50 [1] of 21 µM.

Work on `Nc1ncc2c(n1)-c1c([nH]c3ccc(Br)cc13)CCC2` yielded an IC50 [2] of 4.6 µM and an IC50 [1] of 0.1 µM.

With `Nc1ncc2c(n1)-c1c([nH]c3ccc(C#Cc4cccnc4)cc13)CCC2` the IC50 [1] was 30 µM.

`Cn1cncc1C#Cc1ccc2[nH]c3c(c2c1)-c1nc(N)ncc1CCC3` showed an IC50 [1] of 30 µM.

With `CC(O)c1ccc(-c2ccc3[nH]c4c(c3c2)-c2nc(N)ncc2CCC4)cc1` (stereo not drawn) the IC50 [1] was 24 µM.

In the case of `CC(O)c1ccc(-c2ccc3[nH]c4c(c3c2)-c2nc(N)ncc2CCC4)s1` (stereo not drawn), the IC50 [1] is reported as 15 µM.

Work on `COCCOc1cnc(N)nc1-c1c[nH]c2ccc(C#CC(C)(C)O)cc12` yielded an IC50 [2] of 0.02 µM and an IC50 [1] of 0.04 µM.

In the case of `Cc1nc2ccc(Cl)cn2c1-c1ccnc(N)n1`, the IC50 [2] is reported as 16 µM and the IC50 [1] is reported as 0.6 µM.

Work on `Nc1nccc(-c2cnc3ccc(Br)cn23)n1` yielded an IC50 [1] of 0.19 µM.

`Cc1nc2ccc(Cl)cc2n1-c1ccnc(N)n1` showed an IC50 [1] of 4 µM.

Compound `Nc1nccc(-n2cnc3ccc(Cl)cc32)n1` has an IC50 [1] of 0.31 µM.

In the case of `Cc1[nH]c2ccc(Cl)cc2c1-c1ccnc(N)n1`, the IC50 [1] is reported as 0.3 µM.

`Nc1nccc(-c2c[nH]c3ccc(Cl)cc23)n1` was tested, and the IC50 [1] was 0.15 µM.

`Nc1nccc(-n2ccc3ccc(Cl)cc32)n1` gave an IC50 [1] of 0.076 µM.

Work on `Nc1nccc(-n2ccc3ccc(Br)cc32)n1` yielded an IC50 [1] of 0.089 µM.

Compound `N#Cc1ccc2ccn(-c3ccnc(N)n3)c2c1` has an IC50 [1] of 0.063 µM.

For `Nc1nccc(N2CCc3ccc(Br)cc32)n1`, the IC50 [1] was 0.55 µM.

`Nc1nccc(-c2c[nH]c3ccc(F)cc23)n1` was tested, and the IC50 [1] was 1.8 µM.

`COc1ccc2[nH]cc(-c3ccnc(N)n3)c2c1` was tested, and the IC50 [1] was 24 µM.

For `N#Cc1ccc2[nH]cc(-c3ccnc(N)n3)c2c1`, the IC50 [1] was 0.063 µM.

Compound `Cc1ccc2nc(C)c(-c3ccnc(N)n3)n2c1` has an IC50 [1] of 42 µM.

For `Nc1nccc(-c2c[nH]c3ccccc23)n1`, the IC50 [1] was 41 µM.
